AC50 data for 92 compounds are collected here from PubChem BioAssay AID463229 (Broad Institute, 2010).

Each structure is given as a SMILES string. Activity calls are given as the source filed them.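 How the source made its calls: active means compounds raising the signal whose fitted half-maximal concentration is at or below their top tested dose (cut at about 25 µM in these data); inconclusive means flat fit at 30 to 70% activity, or a poor fit; inactive means the rest.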

The subject of the test is INS-1E rat beta cells, no cytokines, CellTiter-Glo ATP, 48 h. As to the kind of experiment: ATP level change in INS-1E without cytokines, dose response, counter-screen for beta-cell apoptosis protection project, INS-1E rat cells, ATP luminescence, cherry pick (AID 463229). (In general: Counterscreens check selectivity or assay interference.)
By AC50 is commonly meant the midpoint of the concentration-response curve, whichever way the signal moves. Turning to `Cc1[nH]n(-c2ccccc2)c(=O)c1/C=N\NC(=O)C1COc2ccccc2O1` (configuration not stated), the AC50 is 14 µM. For the compound `Cc1cc(/C=N/n2cnnc2)c(C)n1-c1ccc(OCc2ccc(Cl)cc2Cl)cc1`, the AC50 was 1.71 µM. Turning to `Cc1ccccc1-[n+]1c(-c2ccccc2)cc(-c2ccccc2)cc1-c1ccccc1`, the AC50 was 2.2 µM. `O=S(=O)([N-]c1nc2ccccc2nc1-[n+]1ccc(Cc2ccccc2)cc1)c1ccc(Br)s1`: the AC50 was 12.9 µM. Consider `CCN1CCN(Cc2ccc(NC(=O)c3cc(NC(=O)C(=O)c4c[nH]c5ccccc45)cc(OC)c3)cc2C(F)(F)F)CC1`, for which the AC50 is 7.12 µM.

With `CCOc1ccc(C(=O)N/N=C(\c2ccccc2)c2ccccn2)cc1`, the AC50 is 4.89 µM. Then `Cc1ccc2cc(C3C(C#N)=C(N)Oc4c3ccc3cccnc43)c(=O)[nH]c2c1` (configuration not stated), with 5.81 µM; and `O=C(Nc1ccc(OC(F)(F)F)cc1)Nc1cccc([N+](=O)[O-])c1`, with 3.8 µM. Take `CCOc1cc(CNCCc2ccc(S(N)(=O)=O)cc2)ccc1OCc1ccc(Cl)cc1`: the AC50 is 7.84 µM. Then `CC(=O)N1CCCc2cc(S(=O)(=O)N3CCCC(C(=O)N4CCN(c5cccc(Cl)c5)CC4)C3)ccc21` (configuration not stated), with 7.05 µM.

For the compound `COc1cc(Cl)c(NC2=CC(=O)C(=O)c3ccccc32)c(OC)c1`, the AC50 was 8.01 µM. In the case of `O=C(C[C@@H]1C/C=C/CC[C@H](Cc2ccc(F)cc2)C(=O)OC[C@@H](Cc2ccccc2)NC1=O)N[C@H](CO)Cc1ccccc1`, the AC50 is 7.82 µM.

As for `Cc1ccn2c(Nc3ccccc3)c(-c3ccccn3)nc2c1`, the AC50 is 7.4 µM. As for `CCOc1ccc(-c2cc(C(=O)NCCCn3ccnc3)c3cc(Br)ccc3n2)cc1`, the figure is 12.6 µM.

For `Cc1cc(Cl)c(S(=O)(=O)N2CCN(c3ccc(F)cc3)CC2)cc1OCC(=O)NC1CCCCC1`, the half-maximal activity concentration (AC50) is 7.07 µM.

For `CN1CCN(C(c2ccc(C(F)(F)F)cc2)c2ccc3cccnc3c2O)CC1` (configuration not stated), the AC50 was 4.56 µM. On to `Cc1ccccc1CS(=O)(=O)c1nnc([C@H](Cc2ccccc2)NC(=O)OC(C)(C)C)o1`, for which the AC50 was 13 µM. As for `Cc1nc(C)c(C(=O)N/N=C/c2cc(Br)ccc2O)s1`, the figure is 7.57 µM; as for `c1ccc(C(c2ccccc2)N2CCN(c3nc4ccccc4n4cnnc34)CC2)cc1`, 4.73 µM; as for `CC(C)(C)c1cc(NCCCn2ccnc2)n2ncc(-c3ccccc3)c2n1`, 15 µM. `O=C(Cc1ccc(Cl)cc1)c1c[nH]c(C(=O)NCc2cccnc2)c1`: the AC50 was 0.665 µM. For `CC(C)(C)n1ncc2c(=O)n(Cc3cccc(Cn4cnc5c(cnn5C(C)(C)C)c4=O)c3F)cnc21`, the AC50 was 4.32 µM. Take `COC(=O)C1CCCCN1C(=O)c1cc(COc2cccc3cnccc23)on1` (configuration not stated): the AC50 is 7.11 µM. `COc1c(CC=C(C)C)cc(C2CC(=O)c3c(O)cc(O)cc3O2)cc1CC=C(C)C` (configuration not stated): the AC50 was 4.05 µM.

Consider `Oc1ccc(N=Nc2ccccc2C(F)(F)F)c2cccnc12`, for which the AC50 was 3.18 µM. Then `CN1C2CCC1/C(=C/c1ccccn1)C(=O)/C2=C\c1ccccn1`, with 2.11 µM. Regarding `COC(=O)c1ccccc1NC1=C/C(=N\S(=O)(=O)c2cccs2)c2ccccc2C1=O`, the AC50 is 8.33 µM.

Regarding `O=C(N/N=C/c1ccccc1O)c1cccc(C(F)(F)F)c1`, the AC50 was 7.18 µM. Then `CCC(CNc1cc(OC)cc2cccnc12)NC1CCCCC1` (configuration not stated), with > 26 µM (inactive); and `O=C1C=C(Nc2ccc(O)cc2)C(=O)c2ccccc21`, with 13.6 µM; and `O=[N+]([O-])c1c(Nc2ccc(O)cc2)cc(Cl)c2nonc12`, with 8.76 µM. On to `CC1(C)C(C=C(Cl)Cl)C1C(=O)Nc1ccc([N+](=O)[O-])cc1` (configuration not stated), for which the AC50 is 7.7 µM.

In the case of `COc1ccc(CC(=O)Nc2nc(-c3ccc(F)c(F)c3)cs2)cc1OC`, the AC50 was 7.2 µM. Consider `CCC(C)Sc1ccc(-c2nc3ccc(C)cn3c2NCc2ccccc2)cc1OC` (configuration not stated), for which the AC50 was 6.46 µM. As for `O=C([O-])c1cc(-c2ccccc2)cc(-c2ccccc2)[n+]1Cc1ccccc1`, the figure is 1.98 µM; as for `Cc1ccc(-c2nc(N/N=C/c3cccnc3)c3ccccc3n2)cc1`, 9.02 µM; as for `CCN1CCN(Cc2ccc(NC(=O)c3cc(NC(=O)c4cnn(-c5ccccc5)c4N)cc(OC)c3)cc2C(F)(F)F)CC1`, 15.3 µM. As for `COc1ccc2c(c1)C(=O)[C@H](O)[C@@H](c1ccc(OC)c(Br)c1)O2`, the figure is 7.97 µM; as for `Cc1ccc(-c2nn(-c3ccccc3)cc2/C=N/NC(=O)c2ccc3c(c2)OCO3)cc1`, 5.63 µM; as for `COc1cccc(/C=N/NC(=O)c2cc(-c3ccccn3)nc3ccccc23)c1O`, 7.61 µM. As for `O=C(N/N=C/c1cc(Br)cc(Cl)c1O)c1ccc2c(c1)OCO2`, the figure is 11 µM. Consider `C=C(C)C(=O)O[C@H]1C/C(C)=C\C(=O)/C=C(\C)[C@H](O)[C@@H]2OC(=O)C(=C)[C@@H]21`, for which the AC50 is 14.5 µM.

Turning to `Cc1ccc(S(=O)(=O)c2ccc([N+](=O)[O-])cn2)cc1`, the AC50 was 13.5 µM. For the compound `C=C1C(=O)O[C@H]2C[C@@H](C)[C@@H]3C=CC(=O)[C@@]3(C)C[C@H]12`, the AC50 is 7.64 µM.

As to `CCCCCCOC(=O)C[N+](C)(C)CCOC1CC2CCC1(C)C2(C)C` (configuration not stated), the AC50 was 4.48 µM. Consider `COc1ccc2nc(/C(C#N)=C\c3ccc(Oc4ccc([N+](=O)[O-])cn4)cc3)[nH]c2c1`, for which the AC50 was 6.77 µM. `CC(=O)NC(c1cc(Cl)c2cccnc2c1O)C1CC1` (configuration not stated): the AC50 was 7.49 µM. For the compound `CCC1(OC(=O)CN)C(=O)OCc2c1cc1n(c2=O)Cc2cc3ccccc3nc2-1` (configuration not stated), the AC50 was less than 0.195 µM. For the compound `O=C(NCc1cccnc1)c1ccc([N+](=O)[O-])cc1`, the AC50 was 5.86 µM. Regarding `Cc1cc2nc(NCCCO)n(CC(=O)c3cc(C(C)(C)C)c(O)c(C(C)(C)C)c3)c2cc1C`, the AC50 is 8.83 µM. For `Cc1ccc(Cl)cc1NC1=C/C(=N\S(=O)(=O)c2cccs2)c2ccccc2C1=O`, the AC50 is 4.61 µM. Consider `CCN1/C(=C/C=C/c2oc3ccc(-c4ccccc4)cc3[n+]2CC)Oc2ccc(-c3ccccc3)cc21`, for which the AC50 is 0.78 µM. `COc1ccc(-n2cc(-c3ccccc3)[n+]3c2CCCCC3)cc1`: the AC50 was 1.94 µM. For `Cc1sc2cc3c(c(C(=O)c4ccccc4)[n+]2c1C)-c1cccc2cccc-3c12`, the AC50 was 2.27 µM. On to `Cc1ccccc1/C=N/Nc1ccnc2cc(Cl)ccc12`, for which the AC50 was 6.91 µM. Take `O=S(=O)(c1ccc(NC(=S)NCc2cccnc2)cc1)N1CCCCC1`: the AC50 is 1.62 µM. Take `C#CC(=O)N(c1cccc(OC)c1)C(C(=O)NC1CCCC1)c1cccs1` (configuration not stated): the AC50 was 14.7 µM. Consider `CCOc1cc(N2CCOCC2)c(OCC)cc1NC(=O)COc1cccc2cccnc12`, for which the AC50 was 3.61 µM. In the case of `COc1ccc(C(NC(C)=O)c2cc(Cl)c3cccnc3c2O)cc1` (configuration not stated), the AC50 is 7.34 µM. On to `c1ccc(CNc2nc(NCc3ccccc3)c3ccccc3n2)cc1`, for which the AC50 was 11.1 µM.

With `C/C(=N\NC(=O)c1nnn(-c2nonc2N)c1CN(C)c1ccccc1)c1ccccc1O`, the AC50 is 9.18 µM.

`COc1ccc(-n2c(-c3ccc(Br)cc3)c[n+]3c2CCCCC3)cc1`: the AC50 was 1.06 µM.

As for `N#C/C(=N\Nc1cccc([N+](=O)[O-])c1)C(=O)c1ccc(Br)cc1`, the half-maximal activity concentration (AC50) is 7.29 µM. Regarding `Cc1ccc(NC(=O)Cn2c(=O)oc3cc(S(=O)(=O)N4CCC(C)CC4)ccc32)cc1C`, the AC50 is 16 µM. In the case of `COc1ccc(-n2c(-c3ccc(Cl)cc3)c[n+]3c2CCc2ccccc2-3)cc1`, the AC50 is 1.78 µM.

Regarding `COc1ccc(OC)c(NC(=O)CSc2nnc(-c3cccnc3)s2)c1`, the AC50 is 7.37 µM. For the compound `CCCCNC1=CC(=O)C(=O)c2ccccc21`, the AC50 was 7.75 µM. With `O=C(NCCOc1cccnc1)c1ccc(OC2CCN(Cc3ccccn3)CC2)cc1`, the AC50 was less than 0.195 µM. In the case of `COc1cc(/C=C2\CC(C(C)(C)C)C/C(=C\c3cc(OC)c(OC)c(OC)c3)C2=O)cc(OC)c1OC` (configuration not stated), the AC50 was 6.04 µM. With `Cc1nc(NCCc2ccc(S(N)(=O)=O)cc2)c2c(C)c(C)sc2n1`, the AC50 is 6.2 µM.

In the case of `C(C#CCCCCCCCCC[n+]1ccccc1)#CCCCCCCCCC[n+]1ccccc1`, the AC50 was 1.9 µM. Regarding `CCCCOCCCNc1ncnc2c1[nH]c1ccccc12`, the AC50 was 2.24 µM.

As to `O=C(N/N=C/c1ccc(O)cc1O)c1ccc(CN2C(=O)c3cccc4cccc2c34)cc1`, the AC50 was 3.89 µM. Then `O=C(N/N=C/c1ccc[nH]1)c1ccc(COc2cccc3cccnc23)cc1`, with 1.92 µM; and `CCN1CCN(c2ccc(S(=O)(=O)N3CCCCC3)cc2NC(=O)c2ccc([N+](=O)[O-])o2)CC1`, with 8.1 µM; and `CC(C)c1ccc2c(c1)C(N1CCNCC1)Cc1ccc(F)cc1S2` (configuration not stated), with 14.6 µM. Turning to `COc1ccc(C2C(O)C(c3c[nH]c4ccccc34)=NN2C(=O)CCl)cc1` (configuration not stated), the AC50 is 2.9 µM. For `CN1/C(=C\C(=S)NC(=O)c2ccccc2Cl)C(C)(C)c2ccccc21`, the AC50 was 7.37 µM. Then `CCOc1cc(-c2sc(Nc3cc(C)ccc3OC)n[n+]2-c2ccccc2)ccc1OC`, with 15 µM; and `COC(=O)c1ccc2c(=O)n(-c3ccccc3)c(SCN3C(=O)c4ccccc4C3=O)nc2c1`, with 3.86 µM.

For the compound `COc1ccc(-c2c[n+]3c(n2-c2ccccc2)CCCCC3)cc1`, the AC50 was 2.35 µM. As for `Oc1c(CN2CCOCC2)cc(COCc2ccccc2)c2cccnc12`, the AC50 was 8.19 µM. For the compound `COc1cc(-c2nc3ccc(C)cn3c2NCc2ccccc2)ccc1SC1CCCCC1`, the AC50 is 5.49 µM. For the compound `Oc1cccc(/C=N/NC(=S)Nc2cccnc2)c1O`, the AC50 is 8.6 µM. Regarding `Cn1c(-c2ccccc2)cc2c3no[n+]([O-])c3ccc21`, the AC50 is 7.82 µM. Regarding `CCOC(=O)c1c(C)[nH]c(C(=O)OCC(=O)NC(C)(C)C)c1C`, the AC50 is 13.1 µM. For the compound `Cn1nccc1C(=O)NC1CCCc2c1cnn2-c1ccccc1F` (configuration not stated), the AC50 was 3.16 µM. Take `COc1ccc(C(=O)N(C)c2ccccc2C(=O)NCCc2ccccc2)cc1`: the AC50 was 7.85 µM. With `CCC(=O)NC(c1ccc(C)cc1)c1cc(Cl)c2cccnc2c1O` (configuration not stated), the AC50 was 7.97 µM. Consider `CCN(CC)c1ccc(/C=N/Nc2nc(C)cc(C)n2)c(O)c1`, for which the AC50 is 15.8 µM. As for `Cc1cc(N/N=C\c2ccc(Br)cc2)nc(-n2nc(C)cc2C)n1`, the figure is 21.5 µM. Take `O=C1C(=O)c2c(C(=O)c3ccccc3)coc2-c2ccccc21`: the AC50 was 7.21 µM.
